Here are results for 1 compound from patent US20090075941A1, “TREATING NEOPLASMS” (THE UAB RESEARCH FOUNDATION, priority 2006, published 2009).

Test [1] has as its system unprenylated Rap1A in AB12 cells. Put plainly: Western blot, accumulation of unprenylated Rap1A (Example 1). Format: cell-based, mouse. As to the method:
(§1) Western blotting. AB12 and AC29 cells were plated on 6-well plates in normal culture medium until near confluency. The cells were then rinsed with sterile PBS and cultured for further 24 h in serum-free culture medium, in the presence or absence of 2×10^−4-10^−5 M risedronate, zoledronate or PBS control, with or without 25 μM geranylgeraniol, or the same volume of ethanol as a vehicle control. Culture medium was discarded and the cells were harvested in lysis buffer (20 mM Tris pH 7.4, 150 mM NaCl, 1 mM EDTA, 1 mM EGTA, 1% Triton, 2.5 mM sodium pyrophosphate, 1 mM β-glycerolphosphate, 1 mM Na3VO4, 1 μg/ml leupeptin (Cell Signaling Technology, Inc.; Danvers, Mass.)) and clarified by centrifugation. After boiling the supernatants in reducing SDS sample buffer, equal amounts of protein (˜50 μg) were loaded per lane and the samples were electrophoresed on 10% polyacrylamide SDS gel and transferred to a nitrocellulose membrane. Unprenylated Rap1A was detected with the antibody SC-1482 and total Rap1 (both prenylated and unprenylated forms of both Rap1A and Rap1B) was detected with the antibody SC-65 (Santa Cruz Biotechnology, Inc.; Santa Cruz, Calif.), according to the manufacturer's recommendations. The phosphorylation status of p38 was studied with anti-phospho-p38 and anti-total p38 antibodies (Cell Signaling Technology, Inc.), as recommended by the manufacturer. The protein bands were visualized by chemiluminescence using SuperSignal West Pico ECL kit (Pierce; Rockford, Ill.).
A general note: In western blotting, separated proteins are transferred to a membrane and probed.

The test system of test [2] is unprenylated Rap1A in AC29 cells. The description is as above. It is filed as cell-based, mouse. As to the method: as §1
Test [3] relates to p38 phosphorylation in AB12 cells. Put plainly: Western blot, phosphorylation of p38 (Example 1). Format: cell-based, mouse. The note with it: 24 h. The method, then:
as §1, with “The protein bands were visualized by chemiluminescence using SuperSignal West Pico ECL kit (Pierce; Rockford, Ill.).” left out

The subject of test [4] is p38 phosphorylation in AC29 cells. The test can be described thus: Western blot, phosphorylation of p38 (Example 1). Format: cell-based, mouse. The note with it: 24 h. As to the method: as §1, with “The protein bands were visualized by chemiluminescence using SuperSignal West Pico ECL kit (Pierce; Rockford, Ill.).” left out
For test [5], the system named is AB12 cells. The test can be described thus: Subcutaneous mouse mesothelioma model, tumor volume. It is filed as in vivo. The settings on record: AB12 s.c. in BALB/c mice; risedronate 15 mg/kg (P<0.02), zoledronate 0.5 mg/kg (P<0.003); every six days, 4 treatments from day 10. The method, then: (§2) In vivo mesothelioma models. Female BALB/c mice, four to eight weeks of age, were obtained from the National Cancer Institute-Frederick Cancer Research Facility (Frederick, Md.) and were housed in the Pathogen-Free Rodent Shared Facility (Comprehensive Cancer Center, University of Alabama at Birmingham). All animal procedures were performed, in accordance with recommendations for the proper care and use of laboratory animals and were approved by the local IACUC. Subcutaneous (s.c.) and intraperitoneal (i.p.) mouse mesothelioma models were evaluated. In the s.c. model, 3×10^6 AB12 cells were first injected s.c. into cohorts of BALB/c mice. Treatments with i.p. BPs or vehicle were started when tumors became palpable on day 10 and continued every six days for a total of 4 treatments. Tumor size was measured bidimensionally with calipers every two to three days and tumor volume calculated by the formula (length×width^2)÷2. Mice were euthanized before tumors reached the size of 2000 mm^3. In the i.p. model, AC29 or AB12 cells (5×10^5/0.5 ml) were injected i.p, into cohorts of 10-12 BALB/c using a 26-gauge needle. Treatment was initiated 6 days after tumor inoculation and the mice were followed for survival. In the i.p. model risedronate (15 mg/kg), zoledronate (0.5 mg/kg) or PBS were administered i.p. three times a week for two weeks.

Test [6] concerns AB12 cells. Put plainly: Intraperitoneal mouse mesothelioma model, survival. It is filed as in vivo, BALB/c mice. The note with it: AB12 i.p. As to the method:
as §2

Test [7] has as its system unprenylated Rap1A in MDA-MB-231 breast cancer cells. The test can be described thus: Western blot, unprenylated Rap1A (Example 2). Format: cell-based, human. The settings on record: MDA-MB-231 cells; 24 h. As to the method:
Western blot analysis. Cells were cultured on 6-well plates in normal culture medium until near confluency. The cells were then rinsed with sterile PBS and cultured for further 24 h in serum-tree culture medium, in the presence or absence of the indicated bisphosphonates. Some cultures were also treated with 25 μM geranylgeraniol (cold, all trans), 1.0 μg/ml LPS (Sigma; St. Louis, Mo.) 10 ng/ml IL-1β (R&D Systems; Minneapolis, Minn.) or TNF-α (R&D Systems). To study bisphosphonate effects on connexin-43 expression, the cells were cultured for 24 h in serum-free culture medium in the presence of the indicated bisphosphonates or PBS as a vehicle control. Culture medium was then discarded, the cells were quickly lysed and prepared into Western blot samples, as described in Merrell et al. (2000) Breast Cancer Res. Treat. 81, 231-241. After boiling the supernatants in reducing sodium docedyl sulfate (SDS) sample buffer, equal amounts of protein (˜20-50 μg) were loaded per lane and the samples were electrophoresed on 10% SDS polyacrylamide gel and transferred to a nitrocellulose membrane. To detect, unprenylated Rap1A, the blots were incubated overnight at 4° C. with the antibody SC-1482 (Santa Cruz Technology (San Diego, Calif.)), diluted 1:1000 in Tris-buffered saline, 0.1% (v/v) Tween-20 (TEST), and then with peroxidase-conjugated anti-goat serum (Pierce; Rockford, Ill.), diluted 1:1000 in TBST. Total Rap1 was detected from stripped blots in a similar fashion, with the antibody SC-65 (Santa Cruz Technology). The phosphorylation status of p38 was investigated using anti-phospho-p38 (Cell Signaling; Beverly, Mass.) and after stripping of the membrane, with anti-total p38 antibodies (Cell Signaling), according to the manufacturer's instructions. Expression of connexin-43 was detected with a rabbit anti-connexin-43 antibody (Zymed Laboratories, Inc.; San Francisco, Calif.), diluted 1:1000 in TBST. The protein bands were visualized by chemiluminescence using SuperSignal West Pico ECL kit (Pierce Biotechnology, Inc.; Rockford, Ill.).

Another test deals with AB-12 cells. Put plainly: Cell viability, MTS-assay. Format: cell-based, mouse. As to the method:
Cell viability assays. Cells were plated on 96-well plates at the density of 1×10^3 cells in 100 μl per well in normal culture medium, with or without of the indicated concentrations of the various bisphosphonate combinations and or 1 mM CaCl2, 1 mM EGTA or vehicle and cultured for 48 h. Cell viability was assessed with 3-(4,5-dimethylthiazol-2-yl)-5-(3-carboxy tetrazolium, inner salt (MTS)-assays (CellTiter Aqueous One 96 from Promega; Madison, Wis.) according to the manufacturer's instructions. For each treatment, a PBS-control group was run simultaneously on the same plate. The results for each treatment were calculated as % of the corresponding PBS-group.

`O=P(O)(O)C(O)(Cc1cccnc1)P(=O)(O)O` [risedronate]: the “accumulation of unprenylated Rap1A” value in test [1] (24 h, 2×10^−4-2×10^−6 M) was “dose-dependent accumulation”; in test [2] (24 h, 2×10^−4-2×10^−6 M), “dose-dependent accumulation”; in test [7], “dose-dependent accumulation”. The “reversal of BP-induced accumulation of unprenylated Rap1A by geranylgeraniol” value in test [1] (with 25 μM geranylgeraniol) and in test [2] (with 25 μM geranylgeraniol) was “almost completely reversed” throughout. Also, the p38 phosphorylation result in test [3] and in test [4] was “dose-dependent increase” in each case. Also, the subcutaneous tumor growth entry in the test on AB12 cells [5] is “inhibited subcutaneous tumor growth”. Moreover, the “long-term (> 60 days) survivors” value in the test with AB12 cells [6] (groups of 12 mice, risedronate 15 mg/kg i.p.) is on record as “three”. This compound also showed a median survival in the test with AB12 cells [6] (zoledronate 0.5 mg/kg or risedronate 15 mg/kg i.p. three times a week for two weeks, PBS 26 days) of 30 days. In the test on AB-12 cells (1 mM CaCl2, N-BP 10^−4 M or p-BP 10^−3 M), the “effect of added Ca2+ on the bisphosphonate's growth inhibitory effect” value was “enhanced”. Further, the “effect of added EGTA on the bisphosphonate's growth inhibitory effect” value in the test with AB-12 cells (1 mM EGTA, N-BP 10^−4 M) is given as “enhanced”. The “effect of excess clodronate on the viability change induced by the nitrogen-containing bisphosphonate” value with AB-12 cells (N-BP 10^−4 M + clodronate 10^−3 M) was “decreased slightly, but significantly cell viability”. The “effect of excess etidronate on the viability change induced by the nitrogen-containing bisphosphonate” value with AB-12 cells (N-BP 10^−4 M + etidronate 10^−3 M) was “decreased cell viability”.
